Measured values reported in patent publication US10792289B2 (Horizon Orphan LLC, priority 2009, dated 2020).
Where two headings read alike, the source gives them in different places.

System: P. aeruginosa isolates
Assay: Phase 2 study: MIC of P. aeruginosa isolates to levofloxacin
Format: cell-based
Conditions: Pseudomonas aeruginosa
Experimental: Efficacy was evaluated by microbiologic assessment of sputum samples, time to need for anti-pseudomonal antimicrobials, the Cystic Fibrosis Questionaire-Revised (CFQ-R), and pulmonary function tests. […] Pair-wise comparisons between all the treatment arms were conducted as secondary analyses.

C[C@H]1COc2c(N3CCN(C)CC3)c(F)cc3c(=O)c(C(=O)O)cn1c23 [Levofloxacin, levofloxacin]
MIC50 (336 h, MITT, combined 240 mg QD and BID, Day 14, read-out: MIC50 (all organisms)): 4 µg/mL | MIC90 (336 h, MITT, combined 240 mg QD and BID, Day 14, read-out: MIC90 (all organisms)): 16 µg/mL | MIC50 (336 h, Table 14, EE, 120 mg QD, Day 14, read-out: MIC50 (all organisms)): 8 µg/mL | MIC90 (336 h, Table 14, EE, 120 mg QD, Day 14, read-out: MIC90 (all organisms)): 32 µg/mL | MIC50 (336 h, Table 14, EE, 240 mg BID, Day 14, read-out: MIC50 (all organisms)): 4 µg/mL | MIC90 (336 h, Table 14, EE, 240 mg BID, Day 14, read-out: MIC90 (all organisms)): 32 µg/mL | MIC50 (336 h, Table 14, EE, 240 mg QD, Day 14, read-out: MIC50 (all organisms)): 8 µg/mL | MIC90 (336 h, Table 14, EE, 240 mg QD, Day 14, read-out: MIC90 (all organisms)): 16 µg/mL | MIC (336 h, read-out: Highest MIC to levofloxacin, mean (SD), MITT, 120 mg QD, Day 14): 20.3 µg/mL | MIC (336 h, read-out: Highest MIC to levofloxacin, mean (SD), MITT, 240 mg BID, Day 14): 14.9 µg/mL | MIC (336 h, read-out: Highest MIC to levofloxacin, mean (SD), MITT, 240 mg QD, Day 14): 9.28 µg/mL | MIC (336 h, read-out: Highest MIC to levofloxacin, mean (SD), MITT, combined 240 mg QD and BID, Day 14): 12.1 µg/mL | MIC (336 h, read-out: MIC to levofloxacin (all organisms), mean (SD), EE, 120 mg QD, Day 14): 13 µg/mL | MIC (336 h, read-out: MIC to levofloxacin (all organisms), mean (SD), EE, 240 mg BID, Day 14): 8.4 µg/mL | MIC (336 h, read-out: MIC to levofloxacin (all organisms), mean (SD), EE, 240 mg QD, Day 14): 6.6 µg/mL | MIC (336 h, read-out: MIC to levofloxacin (all organisms), mean (SD), EE, combined 240 mg QD and BID, Day 14): 7.5 µg/mL | MIC (336 h, read-out: MIC to levofloxacin (all organisms), mean (SD), MITT, 120 mg QD, Day 14): 12.9 µg/mL | MIC (336 h, read-out: MIC to levofloxacin (all organisms), mean (SD), MITT, 240 mg BID, Day 14): 8.2 µg/mL | MIC (336 h, read-out: MIC to levofloxacin (all organisms), mean (SD), MITT, 240 mg QD, Day 14): 6.5 µg/mL | MIC (336 h, read-out: MIC to levofloxacin (all organisms), mean (SD), MITT, combined 240 mg QD and BID, Day 14): 7.3 µg/mL | MIC (336 h, read-out: MIC to levofloxacin (all organisms), mean (SD), Table 14, EE, 120 mg QD, Day 14): 21.2 µg/mL | MIC (336 h, read-out: MIC to levofloxacin (all organisms), mean (SD), Table 14, EE, 240 mg BID, Day 14): 15.2 µg/mL | MIC (336 h, read-out: MIC to levofloxacin (all organisms), mean (SD), Table 14, EE, 240 mg QD, Day 14): 9.56 µg/mL | MIC (336 h, read-out: MIC to levofloxacin (all organisms), mean (SD), Table 14, EE, combined 240 mg QD and BID, Day 14): 12.3 µg/mL | MIC50 (672 h, EE and MITT, 120 mg QD, Day 28, read-out: MIC50 for P. aeruginosa isolates): 8 µg/mL | MIC90 (672 h, EE and MITT, 120 mg QD, Day 28, read-out: MIC90 for P. aeruginosa isolates): 32 µg/mL | MIC50 (672 h, EE and MITT, 240 mg BID, Day 28, read-out: MIC50 for P. aeruginosa isolates): 8 µg/mL | MIC90 (672 h, EE and MITT, 240 mg BID, Day 28, read-out: MIC90 for P. aeruginosa isolates): 32 µg/mL | MIC50 (672 h, EE and MITT, 240 mg QD, Day 28, read-out: MIC50 for P. aeruginosa isolates): 8 µg/mL | MIC90 (672 h, EE and MITT, 240 mg QD, Day 28, read-out: MIC90 for P. aeruginosa isolates): 16 µg/mL | MIC50 (672 h, EE, 120 mg QD, Day 28, read-out: MIC50 (all organisms)): 4 µg/mL | MIC90 (672 h, EE, 120 mg QD, Day 28, read-out: MIC90 (all organisms)): 16 µg/mL | MIC50 (672 h, EE, 240 mg BID, Day 28, read-out: MIC50 (all organisms)): 4 µg/mL | MIC90 (672 h, EE, 240 mg BID, Day 28, read-out: MIC90 (all organisms)): 32 µg/mL | MIC50 (672 h, EE, 240 mg QD, Day 28, read-out: MIC50 (all organisms)): 4 µg/mL | MIC90 (672 h, EE, 240 mg QD, Day 28, read-out: MIC90 (all organisms)): 16 µg/mL | MIC50 (672 h, EE, combined 240 mg QD and BID, Day 28, read-out: MIC50 (all organisms)): 4 µg/mL | MIC90 (672 h, EE, combined 240 mg QD and BID, Day 28, read-out: MIC90 (all organisms)): 16 µg/mL | MIC50 (672 h, MITT, 120 mg QD, Day 28, read-out: Highest MIC, MIC50): 8 µg/mL | MIC90 (672 h, MITT, 120 mg QD, Day 28, read-out: Highest MIC, MIC90): 32 µg/mL | MIC50 (672 h, MITT, 120 mg QD, Day 28, read-out: MIC50 (all organisms)): 4 µg/mL | MIC90 (672 h, MITT, 120 mg QD, Day 28, read-out: MIC90 (all organisms)): 16 µg/mL | MIC50 (672 h, MITT, 240 mg BID, Day 28, read-out: Highest MIC, MIC50): 8 µg/mL | MIC90 (672 h, MITT, 240 mg BID, Day 28, read-out: Highest MIC, MIC90): 16 µg/mL | MIC50 (672 h, MITT, 240 mg BID, Day 28, read-out: MIC50 (all organisms)): 4 µg/mL | MIC90 (672 h, MITT, 240 mg BID, Day 28, read-out: MIC90 (all organisms)): 32 µg/mL | MIC50 (672 h, MITT, 240 mg QD, Day 28, read-out: Highest MIC, MIC50): 8 µg/mL | MIC90 (672 h, MITT, 240 mg QD, Day 28, read-out: Highest MIC, MIC90): 16 µg/mL | MIC50 (672 h, MITT, 240 mg QD, Day 28, read-out: MIC50 (all organisms)): 4 µg/mL | MIC90 (672 h, MITT, 240 mg QD, Day 28, read-out: MIC90 (all organisms)): 16 µg/mL | MIC50 (672 h, MITT, combined 240 mg QD and BID, Day 28, read-out: Highest MIC, MIC50): 8 µg/mL
